Measurements from patent US8530489B2 (Vertex Pharmaceuticals Incorporated, priority 2006, dated 2013).
pKi: −log10 of the molar value.

Molecular target: PLK1 (Homo sapiens, UniProt P53350)
Assay: PLK1 Inhibition Assay I (radioactive-phosphate incorporation)
Type: biochemical
Conditions: Ki(app); PLK1 Inhibition Assay I or II (table does not say which)
In short: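 Ki(app) values came from non-linear regression of initial rates after background subtraction, with phosphopeptide measured by phosphocellulose filter binding and scintillation counting. PLK1 at 2 nM was preincubated with compound (typically from 10 μM, 2-fold dilutions) for 10 min, then run 240 min at 25° C with 350 μM [γ-33P]ATP and 450 μM peptide substrate in HEPES pH 7.5 buffer.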

Chain of PLK1 (P53350 whole entry): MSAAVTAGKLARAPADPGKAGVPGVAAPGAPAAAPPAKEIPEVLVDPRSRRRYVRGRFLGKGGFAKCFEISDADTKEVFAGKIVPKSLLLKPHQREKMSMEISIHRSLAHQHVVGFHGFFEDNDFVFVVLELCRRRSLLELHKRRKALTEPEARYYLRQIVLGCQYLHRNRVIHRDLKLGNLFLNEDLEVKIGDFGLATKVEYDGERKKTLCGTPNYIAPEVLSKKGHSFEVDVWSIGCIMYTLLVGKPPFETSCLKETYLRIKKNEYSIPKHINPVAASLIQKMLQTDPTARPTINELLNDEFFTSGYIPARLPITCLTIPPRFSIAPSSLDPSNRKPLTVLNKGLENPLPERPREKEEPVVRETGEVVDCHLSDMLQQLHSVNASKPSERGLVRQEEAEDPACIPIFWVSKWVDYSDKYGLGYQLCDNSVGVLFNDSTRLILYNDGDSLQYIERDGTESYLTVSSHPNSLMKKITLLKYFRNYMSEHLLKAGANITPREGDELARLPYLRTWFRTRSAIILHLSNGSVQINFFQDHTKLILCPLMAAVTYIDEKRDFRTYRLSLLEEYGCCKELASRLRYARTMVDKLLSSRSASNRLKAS

| Structure (SMILES) | pKi |
| --- | --- |
| N#Cc1cnc(NC(CO)c2ccccc2)nc1-c1c[nH]c2ncc(C(F)(F)F)cc12 (stereo not drawn) [Compound I-75, 2-(2-hydroxy-1-phenylethylamino)-4-(5-(trifluoromethyl)-1H-pyrrolo[2,3-b]pyridin-3-yl)pyrimidine-5-carbonitrile] | 7.40 to 8.52 |
| N#Cc1cnc(N[C@H]2CCOC2)nc1-c1c[nH]c2ncc(C(F)(F)F)cc12 [Compound I-78, 2-((S)-tetrahydrofuran-3-ylamino)-4-(5-(trifluoromethyl)-1H-pyrrolo[2,3-b]pyridin-3-yl)pyrimidine-5-carbonitrile] | 7.40 to 8.52 |
| N#Cc1cnc(NCCCn2ccnc2)nc1-c1c[nH]c2ncc(C(F)(F)F)cc12 [Compound I-80, 2-(3-(1H-imidazol-1-yl)propylamino)-4-(5-(trifluoromethyl)-1H-pyrrolo[2,3-b]pyridin-3-yl)pyrimidine-5-carbonitrile] | < 7.40 |
| N#Cc1cnc(NC[C@H]2CC[C@@H](O)C2)nc1-c1c[nH]c2ncc(C(F)(F)F)cc12 [Compound I-81, 2-(((1S,3R)-3-hydroxycyclopentyl)methylamino)-4-(5-(trifluoromethyl)-1H-pyrrolo[2,3-b]pyridin-3-yl)pyrimidine-5-carbonitrile] | 7.40 to 8.52 |
| COc1ccc(C(C)Nc2ncc(C#N)c(-c3c[nH]c4ncc(C(F)(F)F)cc34)n2)cc1Cl (stereo not drawn) [Compound I-84, 2-(1-(3-chloro-4-methoxyphenyl)ethylamino)-4-(5-(trifluoromethyl)-1H-pyrrolo[2,3-b]pyridin-3-yl)pyrimidine-5-carbonitrile] | > 8.52 |
| N#Cc1cnc(NCCC2CCCN2)nc1-c1c[nH]c2ncc(C(F)(F)F)cc12 (stereo not drawn) [Compound I-85, 2-(2-(pyrrolidin-2-yl)ethylamino)-4-(5-(trifluoromethyl)-1H-pyrrolo[2,3-b]pyridin-3-yl)pyrimidine-5-carbonitrile] | < 7.40 |
| N#Cc1cnc(NCCN2CCSCC2)nc1-c1c[nH]c2ncc(C(F)(F)F)cc12 [Compound I-86, 2-(2-thiomorpholinoethylamino)-4-(5-(trifluoromethyl)-1H-pyrrolo[2,3-b]pyridin-3-yl)pyrimidine-5-carbonitrile] | < 7.40 |
| N#Cc1cnc(N2CCC[C@@H]2CN)nc1-c1c[nH]c2ncc(C(F)(F)F)cc12 [Compound I-87, 2-((R)-2-(aminomethyl)pyrrolidin-1-yl)-4-(5-(trifluoromethyl)-1H-pyrrolo[2,3-b]pyridin-3-yl)pyrimidine-5-carbonitrile] | < 7.40 |
| N#Cc1cnc(NC[C@H]2CCCN2)nc1-c1c[nH]c2ncc(C(F)(F)F)cc12 [Compound I-88, 2-((R)-pyrrolidin-2-ylmethylamino)-4-(5-(trifluoromethyl)-1H-pyrrolo[2,3-b]pyridin-3-yl)pyrimidine-5-carbonitrile] | < 7.40 |
| N#Cc1cnc(NCC2CCN(Cc3ccccc3)CC2)nc1-c1c[nH]c2ncc(C(F)(F)F)cc12 [Compound I-89, 2-((1-benzylpiperidin-4-yl)methylamino)-4-(5-(trifluoromethyl)-1H-pyrrolo[2,3-b]pyridin-3-yl)pyrimidine-5-carbonitrile] | < 7.40 |
| N#Cc1cnc(NCc2ccc(O)cc2)nc1-c1c[nH]c2ncc(C(F)(F)F)cc12 [Compound I-90, 4-(5-(1,1-Trifluoromethyl)-1H-pyrrolo[2,3-b]pyridin-3-yl)-2-(4-hydroxybenzylamino)pyrimidine-5-carbonitrile] | 7.40 to 8.52 |
| N#Cc1cnc(NCc2ccc(-n3cccn3)cc2)nc1-c1c[nH]c2ncc(C(F)(F)F)cc12 [Compound I-92, 2-(4-(1H-pyrazol-1-yl)benzylamino)-4-(5-(trifluoromethyl)-1H-pyrrolo[2,3-b]pyridin-3-yl)pyrimidine-5-carbonitrile] | < 7.40 |
| COc1ccc(CNc2ncc(C#N)c(-c3c[nH]c4ncc(C(F)(F)F)cc34)n2)cc1Cl [Compound I-94, 2-(3-chloro-4-methoxybenzylamino)-4-(5-(trifluoromethyl)-1H-pyrrolo[2,3-b]pyridin-3-yl)pyrimidine-5-carbonitrile] | 7.40 to 8.52 |
| N#Cc1cnc(NC2CCC(O)CC2)nc1-c1c[nH]c2ncc(C(F)(F)F)cc12 (stereo not drawn) [Compound I-95, 2-(4-hydroxycyclohexylamino)-4-(5-(trifluoromethyl)-1H-pyrrolo[2,3-b]pyridin-3-yl)pyrimidine-5-carbonitrile] | 7.40 to 8.52 |
| C[C@@H](Nc1ncc(C#N)c(-c2c[nH]c3ncc(C(F)(F)F)cc23)n1)c1ccc(O)cc1 [Compound I-99, 2-((R)-1-(4-hydroxyphenyl)ethylamino)-4-(5-(trifluoromethyl)-1H-pyrrolo[2,3-b]pyridin-3-yl)pyrimidine-5-carbonitrile] | > 8.52 |
| CC(Nc1ncc(C#N)c(-c2c[nH]c3ncc(C(F)(F)F)cc23)n1)c1ccc(=O)[nH]c1 (stereo not drawn) [Compound I-100, 2-(1-(6-oxo-1,6-dihydropyridin-3-yl)ethylamino)-4-(5-(trifluoromethyl)-1H-pyrrolo[2,3-b]pyridin-3-yl)pyrimidine-5-carbonitrile] | > 8.52 |
| CC(=O)N1CCC(C(C)Nc2ncc(C#N)c(-c3c[nH]c4ncc(C(F)(F)F)cc34)n2)CC1 (stereo not drawn) [Compound I-101, 2-(1-(1-acetylpiperidin-4-yl)ethylamino)-4-(5-(trifluoromethyl)-1H-pyrrolo[2,3-b]pyridin-3-yl)pyrimidine-5-carbonitrile] | > 8.52 |
| N#Cc1cnc(NC(CO)C2CCOC2)nc1-c1c[nH]c2ncc(C(F)(F)F)cc12 (stereo not drawn) [Compound I-104, 2-(2-hydroxy-1-(tetrahydrofuran-3-yl)ethylamino)-4-(5-(trifluoromethyl)-1H-pyrrolo[2,3-b]pyridin-3-yl)pyrimidine-5-carbonitrile] | < 7.40 |
| N#Cc1cnc(NC(CO)C2CCOCC2)nc1-c1c[nH]c2ncc(C(F)(F)F)cc12 (stereo not drawn) [Compound I-105, 2-(2-hydroxy-1-(tetrahydro-2H-pyran-4-yl)ethylamino)-4-(5-(trifluoromethyl)-1H-pyrrolo[2,3-b]pyridin-3-yl)pyrimidine-5-carbonitrile] | 7.40 to 8.52 |
| N#Cc1cnc(NC(CCO)C2CC2)nc1-c1c[nH]c2ncc(C(F)(F)F)cc12 (stereo not drawn) [Compound I-106, 2-(1-cyclopropyl-3-hydroxypropylamino)-4-(5-(trifluoromethyl)-1H-pyrrolo[2,3-b]pyridin-3-yl)pyrimidine-5-carbonitrile] | 7.40 to 8.52 |
| COCC(Nc1ncc(C#N)c(-c2c[nH]c3ncc(C(F)(F)F)cc23)n1)C(C)C (stereo not drawn) [Compound I-110, 2-(1-methoxy-3-methylbutan-2-ylamino)-4-(5-(trifluoromethyl)-1H-pyrrolo[2,3-b]pyridin-3-yl)pyrimidine-5-carbonitrile] | 7.40 to 8.52 |

Second part, the compound after the results:

| pKi | Structure (SMILES) |
| --- | --- |
| < 7.40 | N#Cc1cnc(NC2CC2)nc1-c1c[nH]c2ncc(C(F)(F)F)cc12 [Compound I-76, 2-(cyclopropylamino)-4-(5-(trifluoromethyl)-1H-pyrrolo[2,3-b]pyridin-3-yl)pyrimidine-5-carbonitrile] |
| 7.40 to 8.52 | CC[C@H](C)Nc1ncc(C#N)c(-c2c[nH]c3ncc(C(F)(F)F)cc23)n1 [Compound I-77, 2-(sec-butylamino)-4-(5-(trifluoromethyl)-1H-pyrrolo[2,3-b]pyridin-3-yl)pyrimidine-5-carbonitrile] |
| < 7.40 | C#CCNc1ncc(C#N)c(-c2c[nH]c3ncc(C(F)(F)F)cc23)n1 [Compound I-79, 2-(prop-2-ynylamino)-4-(5-(trifluoromethyl)-1H-pyrrolo[2,3-b]pyridin-3-yl)pyrimidine-5-carbonitrile] |
| 7.40 to 8.52 | COCC(C)Nc1ncc(C#N)c(-c2c[nH]c3ncc(C(F)(F)F)cc23)n1 (stereo not drawn) [Compound I-82, 2-(1-methoxypropan-2-ylamino)-4-(5-(trifluoromethyl)-1H-pyrrolo[2,3-b]pyridin-3-yl)pyrimidine-5-carbonitrile] |
| > 8.52 | CC[C@@H](C)Nc1ncc(C#N)c(-c2c[nH]c3ncc(C(F)(F)F)cc23)n1 [Compound I-83, 2-(sec-butylamino)-4-(5-(trifluoromethyl)-1H-pyrrolo[2,3-b]pyridin-3-yl)pyrimidine-5-carbonitrile] |
| 7.40 to 8.52 | CC(O)CNc1ncc(C#N)c(-c2c[nH]c3ncc(C(F)(F)F)cc23)n1 (stereo not drawn) [Compound I-91, 2-(2-hydroxypropylamino)-4-(5-(trifluoromethyl)-1H-pyrrolo[2,3-b]pyridin-3-yl)pyrimidine-5-carbonitrile] |
| 7.40 to 8.52 | CCCNc1ncc(C#N)c(-c2c[nH]c3ncc(C(F)(F)F)cc23)n1 [Compound I-93, 2-(propylamino)-4-(5-(trifluoromethyl)-1H-pyrrolo[2,3-b]pyridin-3-yl)pyrimidine-5-carbonitrile] |
| 7.40 to 8.52 | CCC(O)CNc1ncc(C#N)c(-c2c[nH]c3ncc(C(F)(F)F)cc23)n1 (stereo not drawn) [Compound I-96, 2-(2-hydroxybutylamino)-4-(5-(trifluoromethyl)-1H-pyrrolo[2,3-b]pyridin-3-yl)pyrimidine-5-carbonitrile] |
| 7.40 to 8.52 | C[C@@H](O)CNc1ncc(C#N)c(-c2c[nH]c3ncc(C(F)(F)F)cc23)n1 [Compound I-97, 2-((R)-2-hydroxypropylamino)-4-(5-(trifluoromethyl)-1H-pyrrolo[2,3-b]pyridin-3-yl)pyrimidine-5-carbonitrile] |
| 7.40 to 8.52 | C[C@H](CO)Nc1ncc(C#N)c(-c2c[nH]c3ncc(C(F)(F)F)cc23)n1 [Compound I-107, 2-((R)-1-hydroxypropan-2-ylamino)-4-(5-(trifluoromethyl)-1H-pyrrolo[2,3-b]pyridin-3-yl)pyrimidine-5-carbonitrile] |
| 7.40 to 8.52 | C[C@H](O)[C@@H](CO)Nc1ncc(C#N)c(-c2c[nH]c3ncc(C(F)(F)F)cc23)n1 [Compound I-108, 2-((2R,3S)-1,3-dihydroxybutan-2-ylamino)-4-(5-(trifluoromethyl)-1H-pyrrolo[2,3-b]pyridin-3-yl)pyrimidine-5-carbonitrile] |
| 7.40 to 8.52 | N#Cc1cnc(NCCO)nc1-c1c[nH]c2ncc(C(F)(F)F)cc12 [Compound I-109, 2-(2-hydroxyethylamino)-4-(5-(trifluoromethyl)-1H-pyrrolo[2,3-b]pyridin-3-yl)pyrimidine-5-carbonitrile] |
